Assay results as given in PMC8210616, “Adjuvant-free peptide vaccine targeting Clec9a on dendritic cells can induce robust antitumor immune response through Syk/IL-21 axis” (Theranostics, 2021).
“Also recorded” adds a separate entry of the source. Ends that are not written are not given here. Peptide text beside a SMILES is read from it. * marks the point of attachment. biotin = biotin on the C-terminal Lys, O=C1N[C@H]2[C@H](CS[C@H]2CCCCC(=O)*)N1; Biotin = O=C1N[C@H]2[C@H](CS[C@H]2CCCCC(=O)*)N1

Assays:
FL-DCs = experiment: Uptake of peptide^biotin-SA-PE by FL-DCs, confocal microscopy; type: cell-based, mouse; settings: for effect of endocytosis inhibitor on uptake of CBP-12 by FL-DCs: pre-incubation 1 h with inhibitor, then 50 μM CBP-12^biotin-SA-PE 2 h at 37 °C
Protocol: Biotinylated peptide was mixed with SA-PE in a molar ratio of 1: 3 to obtain SA-PE labeled peptide (peptide^biotin-SA-PE). FL-DCs from wild type (WT) or Clec9a^-/- mice was harvested and washed twice with PBS before use. […] After washing, cells were incubated with Hoechst 33342 (Beyotime Biotechnology, Beijing, China) for 1 h to stain the nucleus. Cells were analyzed with a confocal laser scanning microscopy (Leica TCS SP8, Wetzlar, Germany).

[1] = test system: IL-21 in cDC1s (CD11c^+XCR1^+); experiment: Intracellular cytokine staining for IL-21 in FL-DCs; type: cell-based, mouse
Protocol: FL-DCs were incubated with 100 μg/mL OVA257-264, GA-OVA, CBP-12-OVA or PBS and protein transport inhibitor cocktail at 37 °C for 6 h. For Syk phosphorylation inhibition assay, FL-DCs were incubated with 2.5 μM R406 (MCE, New Jersey, USA) for 1 h and then cultured with 100 μg/mL CBP-12-OVA and protein transport inhibitor cocktail at 37 °C for 6 h. IL-21 positive frequency was detected by ICS. R406 is an ATP-competitive Syk kinase inhibitor [26]. Cells stained with anti-mouse-CD11c-APC (N418), anti-mouse/rat XCR1-Brilliant Violet 650™ (ZET) and anti-mouse-IL-21-PE (FFA21) or Rat IgG2a-PE kappa Isotype Control (eBR2a) for IL-21 production were analyzed by a flow cytometry.

spleen cDC1s = experiment: Phagocytosis / targeting of cDC1s in vivo; set-up: species or system mouse; settings: 100 μg biotinylated peptide s.c., sacrificed after 15 min, n = 3 per group
From the text: Based on our previous study, Asp248 and Trp250 were two key residues for Clec9a to bind with WH peptide. In order to improve the binding of WH peptide to Clec9a, a silico residue scanning approach was applied to design high affinity WH mutants. The mutants were predicted by using the module of Residue Scanning mutates function, MOE (Molecular Operating Environments) software (2018 version, Chemical Computing Group Inc, Montreal, Quebec, Canada). Two hundred and twenty peptides were obtained, among which 15 peptides were selected and synthesized for experimental identification.
For phagocytosis in vivo, 6-week-old C57BL/6 mice were s.c. vaccinated with 100 μg biotinylated peptide. After 15 min of immunization, mice were sacrificed. Splenocytes were stained with anti-mouse CD45-FITC (30-F11), anti-mouse CD11c-PerCP-efluor […]
were fixed, permeabilized and further stained with SA-PE for CBP-12 targeting […]
For phagocytosis in vitro, FL-DCs were incubated with biotinylated GA peptide and CBP-12 for 30 min on ice, then cells were washed three times and culture for 2 h at 37 °C. FL-DCs were stained with anti-mouse CD45-FITC (30-F11), anti-mouse CD11c-PerCP-efluor 450 (N418), anti-mouse XCR1-BV650 (ZET) and CD11b-APC (M1/70) to mark cDC1s and cDC2s. Then FL-DCs were fixed, permeabilized and […]

[2] = test system: spleen cDC1s (CD45^+CD11c^+XCR1^+); experiment: Uptake of biotinylated peptide by spleen cDC1s in vitro; type: cell-based; settings: mouse splenocytes, 6.25 µM biotinylated peptide 30 min on ice, then 2 h at 37 °C, SA-PE flow cytometry
Protocol: Mouse splenocytes (5 × 10^5) were incubated with biotinylated GA peptide and CBP-12 for 30 min on ice, and then cells were washed three times and cultured for 2 h at 37 °C. Spleen cells were stained with anti-mouse CD45-FITC (30-F11), anti-mouse CD11c-PerCP-efluor 450 (N418), anti-mouse XCR1-BV650 (ZET) and anti-mouse CD11b-APC (M1/70). Then cells were fixed, permeabilized and further stained with SA-PE for peptide uptake analysis.

[3] = molecular target: T1, mouse Clec9a (mClec9a) protein (Mus musculus, UniProt Q8BRU4); experiment: Binding affinity measurement by MST; settings: ratio of MST KD values
T1 sequence (Q8BRU4 106-238 limits assumed): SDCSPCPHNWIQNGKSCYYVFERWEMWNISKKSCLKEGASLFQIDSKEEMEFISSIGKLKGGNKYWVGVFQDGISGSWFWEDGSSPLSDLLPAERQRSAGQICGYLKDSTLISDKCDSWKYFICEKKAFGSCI
Protocol: The affinity of the peptide to mouse Clec9a (mClec9a) protein was detected by microscale thermophoresis (MST) (NanoTemper Technologies GmhH, Germany). Briefly, mClec9a protein (Sino Biological, Beijing, China) was labeled with Red-NHS647 dye (NanoTemper Technologies GmhH, Germany), and the successfully labeled protein was used for affinity measurements. Peptides were diluted into serial concentrations with MST buffer. Equal volume of dye-labeled mClec9a protein was incubated with peptides at room temperature, the mixture was loaded onto capillaries (NanoTemper Technologies GmhH, Germany) and immediately analyzed by an MST instrument. The data were estimated by MO. Affinity Analysis v2.2.4.

mClec9a = molecular target: T2, mClec9a (Mus musculus, UniProt Q8BRU4); experiment: Peptide binding assay by flow cytometry, mClec9a-transfected HEK-293T cells; settings: biotinylated peptides 100 µM, 30 min on ice, SA-PE
T2 construct: expressed in transfected cells; host or cells: HEK-293T
T2 sequence (Q8BRU4 1-264 isoform Q8BRU4-4): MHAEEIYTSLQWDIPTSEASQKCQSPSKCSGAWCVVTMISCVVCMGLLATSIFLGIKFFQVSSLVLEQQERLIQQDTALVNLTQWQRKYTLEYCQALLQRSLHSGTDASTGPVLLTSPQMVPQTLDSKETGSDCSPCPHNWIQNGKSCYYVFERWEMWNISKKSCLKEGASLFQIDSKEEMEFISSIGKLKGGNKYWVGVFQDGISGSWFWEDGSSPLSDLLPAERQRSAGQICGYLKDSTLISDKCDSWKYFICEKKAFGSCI
Protocol: (§1) HEK-293T cells were transiently transfected with pIRES2-EGFP-mClec9a plasmid, or the mock pIRES2-EGFP plasmid for binding assay. Cells (3 × 10^5) were incubated with rat serum to block Fc receptors and different biotinylated peptides for 30 min on ice. After washing three times, cells were stained with streptavidin (SA)-PE for 30 min on ice, and the samples were analyzed for binding affinity by a flow cytometry after washing once.

[4] = In vitro enzyme degradation of peptide in mouse serum; type: in vitro ADME; settings: 10% (V/V) mouse serum saline solution, peptide 1 mM, 37 °C, sampled 0, 0.25, 0.5, 1 and 2 h, residual peptide by RP-HPLC
Protocol: further stained with SA-PE. CBP-12 uptake by cDC1s and cDC2s were tested with […]
In vitro enzyme degradation of peptide
Peripheral blood of mice was stand at room temperature for 1 h, centrifuged for 10 min and then the supernatant was acquired. The peptide (1 mM) was added into 10% (V/V) serum saline solution and incubated for 2 h at 37 ℃. The samples taken at different time points were added 90% (V/V) acetonitrile-glacial acetic acid mixture and centrifuged for 15 min, then the supernatants were collected. The content of the residual peptide in samples was analyzed at 0 h, 0.25 h, 0.5 h, 1 h and 2 h by […]
CBP-12-OVA targeting to Clec9a together with adjuvant treated tumor model C57BL/6 or Clec9a−/− mice were s.c. injected with 2 × 10^5 B16-OVA cells. Three days after the tumor implantation, the mice were treated weekly for total of three times, with either 100 μg peptide or normal saline and 30 μg CpG ODN 1826 as adjuvant.
Then the mice were sacrificed after five days of the last injection.
Animal immunization and ex vitro CTL priming without adjuvant
For animal immunization and ex vivo CTL priming, female C57BL/6 mice of 6 -8 weeks were immunized with 20 μg OVA257–264, GA-OVA, CBP-12-OVA, or normal saline s.c. injected once a week for total of three times. Five days after the last

human Clec9a = human Clec9a (Homo sapiens, UniProt Q6UXN8); experiment: Binding to human Clec9a (data not shown)
HEK-293T^mock cells = experiment: Peptide binding assay by flow cytometry, mock-transfected HEK-293T cells; settings: biotinylated peptides 100 µM, 30 min on ice, SA-PE
Protocol: as §1

[5] = molecular target: mouse Clec9a (mClec9a) protein (mouse) (UniProt Q8BRU4); experiment: MST; mClec9a protein labeled with Red-NHS647 dye; peptides in serial dilution in MST buffer, room temperature; MO. Affinity Analysis v2.2.4
[6] = 50 µM peptide^biotin-SA-PE, 2 h, 37 °C, confocal

human Clec9a, sequence (Q6UXN8 whole entry): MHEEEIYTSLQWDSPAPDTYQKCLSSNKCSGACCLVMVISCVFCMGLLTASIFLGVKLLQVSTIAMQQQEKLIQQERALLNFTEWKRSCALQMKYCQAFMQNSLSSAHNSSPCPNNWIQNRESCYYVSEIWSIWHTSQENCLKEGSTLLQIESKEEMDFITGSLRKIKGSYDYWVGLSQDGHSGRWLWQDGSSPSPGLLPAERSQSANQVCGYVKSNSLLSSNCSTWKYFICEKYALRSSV

CN(C)CCCN1c2ccccc2Sc2ccc(Cl)cc21 [chlorpromazine, reference compound]
effect of endocytosis inhibitor on uptake of CBP-12 by FL-DCs (FL-DCs): inhibited

N=C(N)NC(=O)c1nc(Cl)c(N)nc1N [amiloride, reference compound]
effect of endocytosis inhibitor on uptake of CBP-12 by FL-DCs (FL-DCs): inhibited

CC(C)[C@H](NC(=O)[C@H](CO)NC(=O)[C@H](CO)NC(=O)[C@H](Cc1c[nH]cn1)NC(=O)[C@H](Cc1ccccc1)NC(=O)[C@H](CCCNC(=N)N)NC(=O)[C@@H]1CCCN1C(=O)[C@@H](N)Cc1c[nH]c2ccccc12)C(=O)N[C@@H](CCCNC(=N)N)C(=O)N[C@@H](Cc1c[nH]cn1)C(=O)N[C@H](C(=O)N[C@@H](Cc1c[nH]cn1)C(=O)NCC(=O)NCC(=O)NCC(=O)N[C@@H](CCCCNC(=O)CCCC[C@@H]1SC[C@@H]2NC(=O)N[C@@H]21)C(=O)O)[C@@H](C)O [CBP-12] (H-WPRFHSSVRHTHGGGK(Biotin)-OH; N-terminus and C-terminus assumed)
secretion of IL-21 from cDC1s, ICS ([1]; FL-DCs, 100 µg/mL peptide, 6 h, 37 °C): stimulated the secretion of IL-21 from cDC1s | fluorescence signal in FL-DCs derived from Clec9a^-/- mice (FL-DCs; [6]): much lower | fluorescence signal in FL-DCs of WT mice (FL-DCs; [6]): strong fluorescence signal | targeting of cDC1s versus cDC2s in vivo (spleen cDC1s): could target to cDC1s but not cDC2s | uptake by spleen cDC1s in vitro [2]: strong uptake | affinity for mClec9a relative to WH peptide [3]: 37.2 fold | binding to mClec9a-overexpressing HEK-293T cells (mClec9a): higher binding affinity than the other peptides | stability in mouse serum [4]: resists protease hydrolysis; also recorded: stable in mouse serum for 1 h | binding to human Clec9a (human Clec9a): could bind | binding to mock plasmid transfected HEK-293T cells (HEK-293T^mock cells): did not bind

COc1cc(Nc2ncc(F)c(Nc3ccc4c(n3)NC(=O)C(C)(C)O4)n2)cc(OC)c1OC [R406, reference compound]
effect on CBP-12-OVA induced IL-21 secretion from cDC1s ([1]; 2.5 µM R406 for 1 h, then 100 µg/mL CBP-12-OVA 6 h): suppress the secretion of IL-21

WPRFHSSVRHTHGGGK(biotin) [CBP-12^biotin (12-mer Clec9a binding peptide, …-GGG-K^biotin)]
Kd [5]: 0.61 µM

WPRFHSSVFHTHGGGK(biotin) [WH^biotin (WH peptide, …-GGG-K^biotin)]
Kd [5]: 22.7 µM
